Data set [1] addresses T1, hT1R1/hT1R3 umami receptor expressed in an HEK293 cell line (Homo sapiens, UniProt Q7RTX0+Q7RTX1).
T1 construct: expressed in transfected cells; host or cells: HEK293 cell line derivative, hT1R1/hT1R3-HEK293-Gα15, clone I-17, mifepristone-induced
T1 sequence (Q7RTX1 21-841): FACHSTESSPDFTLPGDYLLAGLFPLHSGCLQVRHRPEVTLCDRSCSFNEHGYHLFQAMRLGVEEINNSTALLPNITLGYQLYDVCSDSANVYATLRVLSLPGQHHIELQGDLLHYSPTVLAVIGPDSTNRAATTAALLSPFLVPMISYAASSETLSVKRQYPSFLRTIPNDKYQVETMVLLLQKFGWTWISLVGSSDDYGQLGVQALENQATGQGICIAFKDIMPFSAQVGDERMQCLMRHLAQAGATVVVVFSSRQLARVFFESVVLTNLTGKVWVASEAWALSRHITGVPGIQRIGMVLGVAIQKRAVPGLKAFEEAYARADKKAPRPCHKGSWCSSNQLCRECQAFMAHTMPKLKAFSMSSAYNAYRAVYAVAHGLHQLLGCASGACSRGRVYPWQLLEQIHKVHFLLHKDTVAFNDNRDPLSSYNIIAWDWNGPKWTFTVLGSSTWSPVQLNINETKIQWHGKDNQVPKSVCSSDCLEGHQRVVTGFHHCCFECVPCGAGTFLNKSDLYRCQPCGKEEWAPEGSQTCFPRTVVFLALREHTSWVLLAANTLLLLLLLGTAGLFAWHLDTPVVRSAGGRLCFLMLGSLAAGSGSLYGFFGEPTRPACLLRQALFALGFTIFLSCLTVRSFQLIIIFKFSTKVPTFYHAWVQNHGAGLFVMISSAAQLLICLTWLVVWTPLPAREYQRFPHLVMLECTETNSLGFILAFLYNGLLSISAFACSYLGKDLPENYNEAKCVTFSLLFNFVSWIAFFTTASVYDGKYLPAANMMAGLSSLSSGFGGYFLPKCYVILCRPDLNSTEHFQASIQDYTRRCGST
T1 sequence (Q7RTX0 21-852): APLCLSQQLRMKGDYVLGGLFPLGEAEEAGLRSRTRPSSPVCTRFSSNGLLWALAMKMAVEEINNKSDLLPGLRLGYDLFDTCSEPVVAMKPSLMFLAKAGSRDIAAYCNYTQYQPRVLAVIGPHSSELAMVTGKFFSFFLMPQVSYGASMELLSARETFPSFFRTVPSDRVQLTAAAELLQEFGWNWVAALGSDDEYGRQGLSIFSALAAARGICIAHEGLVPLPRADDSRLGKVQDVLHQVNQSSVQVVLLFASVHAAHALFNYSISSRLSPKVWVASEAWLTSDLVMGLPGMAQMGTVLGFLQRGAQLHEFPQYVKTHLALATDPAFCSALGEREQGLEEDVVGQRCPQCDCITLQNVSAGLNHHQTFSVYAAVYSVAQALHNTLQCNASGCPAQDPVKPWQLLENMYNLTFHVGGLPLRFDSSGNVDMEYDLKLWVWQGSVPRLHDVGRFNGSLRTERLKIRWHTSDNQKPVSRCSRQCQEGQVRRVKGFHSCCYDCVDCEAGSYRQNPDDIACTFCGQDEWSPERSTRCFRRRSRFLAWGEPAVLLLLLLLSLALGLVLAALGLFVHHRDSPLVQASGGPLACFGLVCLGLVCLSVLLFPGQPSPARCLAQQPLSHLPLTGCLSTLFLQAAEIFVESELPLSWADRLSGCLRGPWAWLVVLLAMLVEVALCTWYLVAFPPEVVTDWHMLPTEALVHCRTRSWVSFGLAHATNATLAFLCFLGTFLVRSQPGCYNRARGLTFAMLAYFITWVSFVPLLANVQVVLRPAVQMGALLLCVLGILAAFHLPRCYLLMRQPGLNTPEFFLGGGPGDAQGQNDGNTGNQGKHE
The data set is described as follows: In vitro hT1R1/hT1R3 umami taste receptor activation assay (FLIPR, dose response). In kind it is cell-based. Here is the method: Activity was determined using an automated fluorometric imaging assay on a FLIPR instrument ([…], Molecular Devices, Sunnyvale, Calif.) (designated FLIPR assay). […] After replacement with 25 μl D-PBS, stimulation was performed in the FLIPR instrument and at room temperature by the addition of 25 μl D-PBS supplemented with different stimuli at concentrations corresponding to twice the desired final level. Receptor activity was quantified by determining the maximal fluorescence increases (using a 480 nm excitation and 535 nm emission) after normalization to basal fluorescence intensity measured before stimulation.
Activities were normalized to the response obtained with 60 mM monosodium glutamate, a concentration that elicits maximum receptor response.

The target in data set [2] is T1, hT1R1/hT1R3 umami receptor expressed in an HEK293 cell line. In words: Umami taste enhancement activity assay (EC50 ratio vs. MSG, FLIPR). In kind it is cell-based. To be noted: for Ec50 ratio (vs. MSG): Table A. Here is the method: A series of measurements of the dose response is run in solutions comprising MSG alone, then a second dose response is run with MSG in combination with predetermined amounts of a candidate compound of Formula (I) at the same time.
Typical compound concentrations tested were 30 μM, 10 μM, 3 μM, 1 μM, 0.3 μM, 0.1 μM and 0.03 μM. The relative efficacy of compounds of Formula (I) at enhancing the receptor was determined by calculating the magnitude of a shift in the EC50 for monosodium glutamate. Enhancement was defined as a ratio (EC50R) corresponding to the EC50 of monosodium glutamate, determined in the absence of the test compound, divided by the EC50 of monosodium glutamate, determined in the presence of the test compound.
Stated alternatively, “EC50 ratio” as compared to MSG is calculated based on the following definitions: EC50 Ratio vs. MSG=EC50 (MSG)/EC50 (MSG+[Compound]) • wherein “[compound]” refers to the concentration of the compound of Formula (I) used to elicit (or enhance or potentiate) the MSG dose response.

The mark [3] stands for this setting: Table A, triazoles, read-out: Umami EC50.
Setting [4] is: read-out: EC50 for activation of a hT1R1/hT1R3 umami receptor expressed in an HEK293 cell line.

Where two headings read alike, the source gives them in different places.

With `Cc1ccc(-c2n[nH]c(SCc3ccccn3)n2)cc1` [Example A1, 2-((5-p-tolyl-2H-1,2,4-triazol-3-ylthio)methyl)pyridine], in data set [1] (setting [3]), the EC50 is 0.17 µM. Besides, in data set [2] (@ 0.01 μM compound), the “Ec50 ratio (vs. MSG)” value came out at 2.19.
In the case of `COc1ccc(-c2n[nH]c(SCc3ccccn3)n2)c(C)c1` [Example A3, 2-((5-(4-methoxy-2-methylphenyl)-2H-1,2,4-triazol-3-ylthio)methyl)pyridine], the EC50 in data set [1] (setting [3]) amounted to 0.24 µM. For the same molecule, the “Ec50 ratio (vs. MSG)” value in data set [2] (@ 0.3 μM compound) was found to be 2.01.
In the case of `CCOc1ccc(-c2n[nH]c(SCc3ccccn3)n2)cc1` [Example A7, 2-((5-(4-ethoxyphenyl)-2H-1,2,4-triazol-3-ylthio)methyl)pyridine], in data set [1] (setting [3]), the EC50 is 0.74 µM. In data set [2] (@ 0.03 μM compound), the “Ec50 ratio (vs. MSG)” value turned out to be 2.33.
Regarding `COc1ccc(-c2n[nH]c(SCc3ccccn3)n2)c(OC)c1` [Example A4, 2-((5-(2,4-dimethoxyphenyl)-2H-1,2,4-triazol-3-ylthio)methyl)pyridine], the EC50 in data set [1] (setting [3]) was found to be 0.37 µM. In addition, in data set [2] (@ 0.1 μM compound), the “Ec50 ratio (vs. MSG)” value stood at 6.22.
Turning to `CC(C)c1ccc(-c2n[nH]c(SCc3ccccn3)n2)cc1` [Example A5, 2-((5-(4-isopropylphenyl)-2H-1,2,4-triazol-3-ylthio)methyl)pyridine], in data set [1] (setting [3]), the EC50 was found to be 0.42 µM. Besides, the “Ec50 ratio (vs. MSG)” value in data set [2] (@ 0.03 μM compound) was found to be 1.5.
Take `Clc1cccc(-c2n[nH]c(SCc3ccccn3)n2)c1` [Example A15, 2-((5-(3-chlorophenyl)-2H-1,2,4-triazol-3-ylthio)methyl)pyridine]: the EC50 in data set [1] (setting [3]) turned out to be 2.54 µM. The “Ec50 ratio (vs. MSG)” value in data set [2] (@ 0.1 μM compound) was determined as 2.
Regarding `c1ccc(CSc2nc(-c3ccc4c(c3)OCO4)n[nH]2)nc1` [Example A10, 2-((5-(benzo[d][1,3]dioxol-5-yl)-2H-1,2,4-triazol-3-ylthio)methyl)pyridine], the EC50 in data set [1] (setting [3]) turned out to be 1.18 µM. Besides, in data set [2] (@ 0.3 μM compound), the “Ec50 ratio (vs. MSG)” value stood at 6.01.
For `CCOc1ccccc1-c1n[nH]c(SCc2ccccn2)n1` [Example A19, 2-((5-(2-ethoxyphenyl)-2H-1,2,4-triazol-3-ylthio)methyl)pyridine], in that order: 6.49 µM and 2.01.
Regarding `Cc1ccccc1-c1n[nH]c(SCc2ccccn2)n1` [Example A12, 2-((5-o-tolyl-2H-1,2,4-triazol-3-ylthio)methyl)pyridine], in data set [1] (setting [3]), the EC50 was determined as 1.86 µM. In addition, the “Ec50 ratio (vs. MSG)” value in data set [2] (@ 0.1 μM compound) amounted to 1.97.
Turning to `Cc1ccc(-c2nc(SCc3ccccn3)n[nH]2)c(C)c1` [Example 3, 2-((5-(2,4-dimethylphenyl)-1H-1,2,4-triazol-3-ylthio)methyl)pyridine], the melting point fell in the range of 112 to 114 °C. Besides, in data set [1] (setting [4]), the EC50 amounted to 0.09 µM. Further, in data set [2] (compound present at 0.01 μM), the “EC50 ratio (enhanced the effectiveness of monosodium glutamate)” value is on record as 4.3.
In the case of `COc1cc(OC)cc(-c2n[nH]c(SCc3ccccn3)n2)c1` [Example A16, 2-((5-(3,5-dimethoxyphenyl)-2H-1,2,4-triazol-3-ylthio)methyl)pyridine], the EC50 in data set [1] (setting [3]) was 2.58 µM. Also, in data set [2] (@ 0.3 μM compound), the “Ec50 ratio (vs. MSG)” value is 3.16.
As to `c1ccc(CSc2n[nH]c(-c3cc4ccccc4o3)n2)nc1` [Example 6], the EC50 in data set [1] (setting [4]) came to 2.58 µM. In data set [2] (compound present at 0.1 μM), the “EC50 ratio (enhanced the effectiveness of monosodium glutamate)” value was determined as 2.88.
As to `COc1cccc(-c2n[nH]c(SCc3ccccn3)n2)c1OC` [Example A2, 2-((5-(2,3-dimethoxyphenyl)-2H-1,2,4-triazol-3-ylthio)methyl)pyridine], the EC50 in data set [1] (setting [3]) was 0.18 µM. In data set [2] (@ 0.01 μM compound), the “Ec50 ratio (vs. MSG)” value worked out at 1.9.
As for `Cc1cc(-c2nc(SCCc3ccccn3)n[nH]2)oc1C` [Example 8, 2-(2-(5-(4,5-dimethylfuran-2-yl)-1H-1,2,4-triazol-3-ylthio)ethyl)pyridine], the EC50 in data set [1] (setting [4]) was determined as 1.87 µM. Further, the “EC50 ratio (enhanced the effectiveness of monosodium glutamate)” value in data set [2] (compound present at 0.1 μM) turned out to be 2.66.
Consider `COc1cc(OC)cc(-c2n[nH]c(SCCc3ccccn3)n2)c1` [Example A20, 2-(2-(5-(3,5-dimethoxyphenyl)-2H-1,2,4-triazol-3-ylthio)ethyl)pyridine], for which the EC50 in data set [1] (setting [3]) was 7.37 µM. In addition, the “Ec50 ratio (vs. MSG)” value in data set [2] (@ 0.3 μM compound) is reported as 4.84.
For `COc1ccc(-c2n[nH]c(SCc3ccccn3)n2)cc1OC` [Example A18, 2-((5-(3,4-dimethoxyphenyl)-2H-1,2,4-triazol-3-ylthio)methyl)pyridine], in that order: 4.08 µM and 2.13.
For the molecule `c1ccc(-c2n[nH]c(SCc3ccccn3)n2)cc1` [Example A17, 2-((5-phenyl-2H-1,2,4-triazol-3-ylthio)methyl)pyridine], the EC50 in data set [1] (setting [3]) stood at 2.89 µM. Further, the “Ec50 ratio (vs. MSG)” value in data set [2] (@ 0.3 μM compound) is on record as 3.02.
Take `CCc1ccc(-c2nc(SCc3ccccn3)n[nH]2)cc1` [Example 4, 2-((5-(4-Ethylphenyl)-1H-1,2,4-triazol-3-ylthio)methyl)pyridine]: the EC50 in data set [1] (setting [4]) worked out at 0.14 µM. The “EC50 ratio (enhanced the effectiveness of monosodium glutamate)” value in data set [2] (compound present at 0.03 μM) is 4.4.
Take `COc1cc(C)ccc1-c1nc(SCc2ccccn2)n[nH]1` [Example 1, 2-((5-(2-methoxy-4-methylphenyl)-1H-1,2,4-triazol-3-ylthio)methyl)pyridine]: the EC50 in data set [1] (setting [4]) was 0.08 µM. The “EC50 ratio (enhanced the effectiveness of monosodium glutamate)” value in data set [2] (compound present at 0.03 μM) amounted to 5.9.
Regarding `COc1ccccc1-c1n[nH]c(SCc2ccccn2)n1` [Example A13, 2-((5-(2-methoxyphenyl)-2H-1,2,4-triazol-3-ylthio)methyl)pyridine], the EC50 in data set [1] (setting [3]) came to 2.12 µM. Moreover, in data set [2] (@ 0.3 μM compound), the “Ec50 ratio (vs. MSG)” value was 7.36.
For `Cc1cc(-c2nc(SCc3ccccn3)n[nH]2)c(C)o1` [Example 7, 2-((5-(2,5-dimethylfuran-3-yl)-1H-1,2,4-triazol-3-ylthio)methyl)pyridine], the EC50 in data set [1] (setting [4]) turned out to be 2.07 µM. Moreover, the “EC50 ratio (enhanced the effectiveness of monosodium glutamate)” value in data set [2] (compound present at 0.1 μM) was 2.1.

The melting point is the temperature of the solid-liquid transition.
